Measured values as given in article PMC5011342, “A high throughput drug screening assay to identify compounds that promote oligodendrocyte differentiation using acutely dissociated and purified oligodendrocyte precursor cells” (BMC Research Notes, 2016).
Where two headings read alike, the source gives them in different places.

Columns and labels:
[1] = tested on: acutely dissociated and purified rat OPCs; test: Acute OL differentiation assay (MBP expression/cell, immunofluorescent image quantification); type: cell-based
Procedure, shortened: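 This acute differentiation assay used purified rat OPCs from postnatal day 6–7 pups, seeded into PDL/laminin-coated 96-well plates in differentiation medium lacking PDGF and FGF. Compounds were applied in quadruplicate after a 1–2 h preincubation at 37 °C, 10 % CO2, with 0.1 % DMSO negative and 40 ng/ml T3 positive controls in eight wells. After fixation on DIV4, anti-MBP immunofluorescence images yielded MBP expression/cell.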

expanded OPCs = test: cells; settings: for viability at 0.1 µM / viability at 1 µM / viability at 10 µM: Rattus norvegicus, 72 h
Procedure, shortened: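 Toxicity screen: compounds added at 0.1, 1 and 10 µM to PDGF-AA-expanded OPCs in 96-well plates, 3-day incubation at 37 °C, 10% CO2, then alamarBlue 1:10 for 4 h with fluorescence readout. Results set screening doses of 10/2, 2/0.4 or 0.4/0.08 µM.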

[2] = Rattus norvegicus, test compound at 2 uM, NCC library screen, sheet "All OLga data", relative to quetiapine, read-out: 2 uM (% Quet)
[3] = Rattus norvegicus, test compound at 10 uM, NCC library screen, sheet "All OLga data", relative to quetiapine, read-out: 10 uM (% Quet)
[4] = read-out: 0.1 µM (% DMSO), alamarBlue viability, NCC library compound at 0.1 µM, sheet "All Tox data"
[5] = read-out: 1 µM (% DMSO), alamarBlue viability, NCC library compound at 1 µM, sheet "All Tox data"
[6] = read-out: 10 µM (% DMSO), alamarBlue viability, NCC library compound at 10 µM, sheet "All Tox data"
[7] = Rattus norvegicus, 2 uM test compound, relative to quetiapine, sheet "All OLga data", read-out: OL differentiation, 2 uM (% Quet)
[8] = Rattus norvegicus, 10 uM test compound, relative to quetiapine, sheet "All OLga data", read-out: OL differentiation, 10 uM (% Quet)
[9] = read-out: 0.1 µM (% DMSO), alamarBlue viability of expanded OPCs, compound at 0.1 µM, sheet All Tox data
[10] = read-out: 1 µM (% DMSO), alamarBlue viability of expanded OPCs, compound at 1 µM, sheet All Tox data
[11] = read-out: 10 µM (% DMSO), alamarBlue viability of expanded OPCs, compound at 10 µM, sheet All Tox data
[12] = alamarBlue viability of expanded OPCs, compound at 0.1 µM, relative to DMSO control
[13] = alamarBlue viability of expanded OPCs, compound at 1 µM, relative to DMSO control
[14] = alamarBlue viability of expanded OPCs, compound at 10 µM, relative to DMSO control
[15] = Rattus norvegicus, test compound at 2 uM, MBP expression relative to quetiapine, NCC library screen, sheet "All OLga data", read-out: 2 uM (% Quet)
[16] = Rattus norvegicus, test compound at 10 uM, MBP expression relative to quetiapine, NCC library screen, sheet "All OLga data", read-out: 10 uM (% Quet)
[17] = Rattus norvegicus, test compound at 0.4 uM, NCC library screen, sheet "All OLga data", relative to quetiapine, read-out: 0.4 uM (% Quet)

Row | Structure (SMILES) | activation at 2 µM [1, 2] [%] | activation at 10 µM [1, 3] [%] | viability at 0.1 µM (expanded OPCs; [4]) [%] | viability at 1 µM (expanded OPCs; [5]) [%] | viability at 10 µM (expanded OPCs; [6]) [%] | activation at 2 µM [1, 7] [%] | activation at 10 µM [1, 8] [%] | viability at 0.1 µM (expanded OPCs; [9]) [%] | viability at 1 µM (expanded OPCs; [10]) [%] | viability at 10 µM (expanded OPCs; [11]) [%] | 0.1 µM (% DMSO) (expanded OPCs; [12]) | 1 µM (% DMSO) (expanded OPCs; [13]) | 10 µM (% DMSO) (expanded OPCs; [14]) | further results
1 | Cc1sc(N)c(C(=O)c2cccc(C(F)(F)F)c2)c1C [PD 81723] | – | – | – | – | – | – | – | – | – | – | – | – | – | 0.4 uM (% Quet) ([1]; test compound at 0.4 uM, NCC library screen, sheet "All OLga data", relative to quetiapine): 4.2 % Quet; 2 uM (% Quet) ([1]; test compound at 2 uM, NCC library screen, sheet "All OLga data", relative to quetiapine): -21.8 % Quet; 0.1 µM (% DMSO) (expanded OPCs; alamarBlue viability, NCC library compound at 0.1 µM, sheet "All Tox data"): 90.2 % DMSO; 1 µM (% DMSO) (expanded OPCs; alamarBlue viability, NCC library compound at 1 µM, sheet "All Tox data"): 90.8 % DMSO; 10 µM (% DMSO) (expanded OPCs; alamarBlue viability, NCC library compound at 10 µM, sheet "All Tox data"): 57.3 % DMSO
2 | O=C1c2cccc3c2[C@H](CCC3)CN1[C@@H]1CN2CCC1CC2 [Palonosetron] | 13.3 | 29.7 | 93 | 92.4 | 72.1 | – | – | – | – | – | – | – | – | –
3 | CC(=O)O[C@H]1C[C@@H]2CC[C@@H]3[C@H](CC[C@@]4(C)[C@H]3C[C@H]([N+]3(C)CCCCC3)[C@@H]4OC(C)=O)[C@@]2(C)C[C@@H]1[N+]1(C)CCCCC1 [Pancuronium] | – | – | – | – | – | 14.7 | 8.2 | 83.3 | 83.2 | 88 | – | – | – | –
4 | COc1ccnc(C[S+]([O-])c2nc3ccc(OC(F)F)cc3[nH]2)c1OC (stereo not drawn) [Pantoprazole] | – | – | – | – | – | 8.8 | -5.3 | 94.1 | 91.1 | 95.2 | – | – | – | –
5 | CCC(=O)NS(=O)(=O)c1ccc(-c2c(-c3ccccc3)noc2C)cc1 [Parecoxib] | -1.5 | -3 | 90.9 | 87.2 | 95.5 | – | – | – | – | – | – | – | – | –
6 | Fc1ccc([C@@H]2CCNC[C@H]2COc2ccc3c(c2)OCO3)cc1 [Paroxetine] | – | – | – | – | – | – | – | 70.7 | 38.3 | 11.7 | 63.3 | 27.9 | 8.3 | activation at 0.08 µM ([1]; Rattus norvegicus, 0.08 uM test compound, relative to quetiapine, sheet "All OLga data", read-out: OL differentiation, 0.08 uM (% Quet)): 16.2%; activation at 0.4 µM ([1]; Rattus norvegicus, 0.4 uM test compound, relative to quetiapine, sheet "All OLga data", read-out: OL differentiation, 0.4 uM (% Quet)): -6.1%; activation at 0.08 µM ([1]; Rattus norvegicus, test compound at 0.08 uM, MBP expression relative to quetiapine, NCC library screen, sheet "All OLga data", read-out: 0.08 uM (% Quet)): -4.5%; activation at 0.4 µM ([1]; Rattus norvegicus, test compound at 0.4 uM, MBP expression relative to quetiapine, NCC library screen, sheet "All OLga data", read-out: 0.4 uM (% Quet)): -15.9%
7 | C[C@H]1COc2c(C3(N)CC3)c(F)cc3c(=O)c(C(=O)O)cn1c23 [Pazufloxacin] | – | – | – | – | – | 1.9 | -11 | 95.3 | 98 | 104 | – | – | – | –
8 | NC1=NC(=O)C(c2ccccc2)O1 (stereo not drawn) [Pemoline] | – | – | – | – | – | -15.2 | -10.6 | 96 | 104 | 101 | – | – | – | –
9 | Nc1nc2c(ncn2CCC(CO)CO)c(=O)[nH]1 [Penciclovir] | – | – | 100 | 98 | 90.7 | -3.5 | 0.01 | – | – | – | – | – | – | –
10 | CC(C)(S)[C@@H](N)C(=O)O [Penicillamine] | -0.01 | 6 | – | – | – | – | – | – | – | – | 86.6 | 87.9 | 92.6 | –
11 | CC1(C)S[C@@H]2[C@H](NC(=O)Cc3ccccc3)C(=O)N2[C@H]1C(=O)O [Penicillin G] | -9.8 | 1.4 | 107 | 102 | 114 | – | – | – | – | – | – | – | – | –
12 | CC1(C)S[C@@H]2[C@H](NC(=O)COc3ccccc3)C(=O)N2[C@H]1C(=O)O [Penicillin V] | – | – | – | – | – | – | – | – | – | – | 96.1 | 96.3 | 93.4 | activation at 2 µM [1, 15]: 14.6%; activation at 10 µM [1, 16]: 6.4%
13 | CC(=O)CCCCn1c(=O)c2c(ncn2C)n(C)c1=O [Pentoxifylline] | 16.8 | 7.2 | 92.8 | 93.6 | 94.9 | 12.2 | -23.3 | 107 | 101 | 98 | – | – | – | –
14 | CCCN1C[C@H](CSC)C[C@@H]2c3cccc4[nH]cc(c34)C[C@H]21 [Pergolide] | -15.7 | – | 100 | 83.6 | 41 | – | – | – | – | – | – | – | – | activation at 0.4 µM [1, 17]: -8.9%
15 | O=C1[C@H]2CCCC[C@H]2C(=O)N1CCCCN1CCN(c2nsc3ccccc23)CC1 [Perospirone, reference compound] | – | – | – | – | – | 84.5 | 18.7 | 110 | 164 | 132 | – | – | – | EC50 ([1]; Rattus norvegicus, average EC50 for induction of OL differentiation from independent biological replicates, eight concentrations): 100 nM; hit in OL differentiation assay, MRF-TMC ([1]; ● = confirmed hit in this paper's assay): ●
16 | NNCCc1ccccc1 [Phenelzine] | – | – | – | – | – | 18 | 18.6 | 78.4 | 80.2 | 93.1 | 94.0 | 95.0 | 87.1 | activation at 2 µM [1, 15]: 3.7%; activation at 10 µM [1, 16]: -4.2%
17 | c1ccc2c(c1)Nc1ccccc1S2 [Phenothiazine] | -12.1 | – | 82.8 | 85.1 | 51.9 | – | – | – | – | – | – | – | – | activation at 0.4 µM [1, 17]: 4%
18 | CC(COc1ccccc1)N(CCCl)Cc1ccccc1 (stereo not drawn) [Phenoxybenzamine] | -11 | 35.4 | – | – | – | – | – | – | – | – | 109.6 | 116.7 | 142.4 | –
19 | NC(=O)OCCCc1ccccc1 [Phenprobamate] | – | – | – | – | – | 26.9 | 12.1 | 96 | 95.1 | 92.7 | – | – | – | –
20 | Cc1ccc(N(CC2=NCCN2)c2cccc(O)c2)cc1 [Phentolamine] | – | – | – | – | – | – | – | – | – | – | 93.8 | 88.6 | 62.0 | activation at 2 µM [1, 15]: -17.9%; activation at 10 µM [1, 16]: -82.7%
